{
  "source": "patent US20140255432A1",
  "about": "“SILVESTROL, SILVESTROL ANALOGS AND USES THEREOF” (priority 2011, published 2014)",
  "key": {"lymphoma cell lines": {"test_system": "lymphoma cell lines", "test": "IC50 against lymphoma cell lines", "type": "cell-based", "conditions": "Homo sapiens", "excerpt": "These include EBV^+ lymphoblastoid cell lines (LCL) derived from SCID mice engrafted with peripheral blood mononuclear cells (hu-PBL-SCID) from EBV-positive donors. (FIG. 1). This hu-PBL-SCID model is a spontaneous, preclinical model of EBV-driven lymphomagenesis that can be utilized to study the anti-tumor and immune surveillance activity of EBV-specific memory T cells. In vitro, the anti-proliferative effect of silvestrol against EBV+ LCLs (FIG. 2) is preceded by a loss of EBV latent membrane protein 1 (LMP1). In FIG. 2A, relative proliferation was determined. MTS assays were performed on three donors treated with silvestrol (2, 5, or 10 nM) or DMSO (control). The assays were performed on days 1, 3, and 5. In FIG. 2B, relative growth was determined. Viability assays were performed on cells from three donors treated with silvestrol (2, 5, or 10 nM) or DMSO (control). The assays were performed on days 1, 3, and 5. Viability was assessed by annexin/propidium iodide flow cytometry."}, "[1]": {"test_system": "CD3-/CD19+ LCL and immune effector subsets", "test": "Non-irradiated LCL / autologous PBMC co-cultures, flow cytometry", "type": "cell-based, human", "protocol": "Lymphoblastoid cell lines (LCL) were derived in vivo by engrafting severe combined immune-deficient (SCID) mice (Taconic, Hudson N.Y.) with human peripheral blood mononuclear cells (PBMC) from a healthy EBV-positive donor as described (Rowe 1991; Baiocchi 1994). Co-cultures (Cocx) were created by mixing 5×10^4 LCL (either non-irradiated or irradiated with 14000 rad) per well with equal numbers of autologous PBMC in 96-well plates. Cultures were grown in the presence of 10 U/mL IL-2 and were given a single dose of silvestrol and cultured for 10-14 days.\n(§1) Cells from irradiated or non-irradiated co-cultures were co-stained with LIVE/DEAD cell stain (Invitrogen, Grand Island, N.Y.) and hu-CD3-APC and either hu-CD4-PE, hu-CD-8-PE, hu-CD19-PE (BD Biosciences, San Diego, Calif.), or hu-CD56-PE (Beckman Coulter, Brea, Calif.). Live events were gathered by gating on cells negative for the LIVE/DEAD stain on an FC500 cytometer (Beckman Coulter). Cell viability was also measured by flow cytometry at 24, 72, and 120 hr using annexin-V-FITC and propidium iodide (PI) according to the manufacturer's instructions (BD Biosciences).\nIt was next examined how viable, non-irradiated LCL interacted with immune effectors in the presence of silvestrol, a situation closer to conditions that occur in vivo. CoCx were incubated in the presence of 10 U/mL IL-2. Specifically, LCL from three separate donors were incubated at a ratio of 1:1 with their respective autologous PBMCs for 10 days after adding a single dose of 0, 2, 5, or 10 nM silvestrol. On day 10, flow cytometric analysis was conducted. Live events were gathered by gating on cells negative for the LIVE/DEAD stain. Data are expressed as percentage of total viable population for (A) CD3^−/CD19^+ LCLs; (B) CD3^+/C4^+ helper T cells; (C) CD3^+/CD8^+ CTLs; or (D) CD3^−/CD56^+ NK cells. Left untreated, the transformed LCL (CD3^−/CD19^+) cells proliferated and matched the expansion of effectors lymphocyte subsets, approximately maintaining the 1:1 ratio (FIGS. 34A and 34E). […] Similarly, CD4^+ T cell percentages were reduced with increasing silvestrol concentrations (FIG. 34B). In contrast, CD8+ T cells and CD56^+ NK cell populations expanded in the presence of silvestrol, both as percent of population and absolute numbers (FIGS. 34C-34D)."}, "[2]": {"test_system": "EBV-positive lymphoblastoid cell lines (LCL)", "test": "Apoptosis/viability by annexin/PI flow cytometry", "type": "cell-based, human", "conditions": "2-50 nM; 24, 72, 120 hr; p=0.006 averaged over doses and time points", "protocol": "as §1\nThe direct anti-tumor activity of silvestrol in leukemia and lymphoma models has been document (Hwang 2004; Bordeleau 2008; Cencic 2009; Lucas 2009 Alinari 2011; Saradhi 2011) as well as silvestrol's increased cytotoxicity to malignant B cells compared to normal blood lymphocytes (Lucas 2009). However, activity of silvestrol has not previously been described in spontaneous EBV-transformed cell lines. Silvestrol's activity in fully transformed EBV-positive LCL derived from tumors of SCID mice engrafted with PBMC from EBV-seropositive donors was observed. Six of these EBV-LCL lines were plated in the presence of low concentrations of silvestrol (2-50 nM), and apoptosis (viability assessed by annexin/PI flow cytometry) (FIG. 2A) and proliferation (MTS assay) (FIG. 2B) were evaluated at 24, 72, and 120 hr. […]"}, "interleukin-6": {"test_system": "interleukin-6", "test": "Real-time RT-PCR for NF-κB targets in LCL", "type": "cell-based, human", "conditions": "10 nM in LCL (FIG. 45)", "excerpt": "FIG. 41 presents data regarding NK cytotoxicity of K562 cells. […] FIG. 42 presents data regarding the cytotoxicity of LCLs pretreated with BZLF 1. […] BZLF1 antigen pulsed LCLs promoted enhanced killing in untreated and silvestrol-treated CTLs. FIG. 43 presents data relating to CD4 IFNgamma release with LCL pretreated with BZLF1. […] FIG. 44 presents data relating to CD4 IFNgamma release with LCL pretreated with BZLF 1. […] FIG. 45 presents data relating to interleukin-6 induction by silvestrol. […] FIG. 46 presents data relating to a change in LMP-1 expression following silvestrol treatment. […] Three cell lines were examined on days 1, 3, and 5 following treatment. FIG. 47 presents data relating to a change in EBNA1 expression following silvestrol treatment. Three cell lines were examined on days 1, 3, and 5 following treatment."}, "[3]": {"conditions": "single dose 2, 5, 10 nM, day 10, non-irradiated LCL"}},
  "note": "pIC50: −log10 of the molar value.",
  "data": [
    {"molecule": "COC(=O)[C@H]1[C@@H](O)[C@@]2(O)c3c(OC)cc(O[C@@H]4O[C@@H]([C@H](O)CO)CO[C@H]4OC)cc3O[C@@]2(c2ccc(OC)cc2)[C@@H]1c1ccccc1", "note": "[silvestrol]", "values": [
      {"measurement": "pIC50", "setting": "lymphoma cell lines", "result": "> 8.00"},
      {"measurement": "CD19+ B cells in non-irradiated co-cultures", "setting": "[1]; 2, 5, 10 nM, 14 days of culture (FIG. 16)", "result": "dose dependent loss"},
      {"measurement": "CD4+ T cell percentages", "setting": "[1]; [3]", "result": "reduced"},
      {"measurement": "CD8+ T cell population (percent and absolute numbers)", "setting": "[1]; [3]", "result": "expanded"},
      {"measurement": "CD56+ NK cell population (percent and absolute numbers)", "setting": "[1]; [3]", "result": "expanded"},
      {"measurement": "viable EBV-LCL (CD3-/CD19+)", "setting": "[1]; [3]", "result": "dose-dependent ablation"},
      {"measurement": "apoptosis vs. untreated control", "setting": "[2]", "result": "Moderate but significant activity"},
      {"measurement": "interleukin-6 expression", "setting": "interleukin-6", "result": "induced"}
    ]}
  ]
}
